# From patent US20110195950A1, “Organic Compounds” (NOVARTIS AG, priority 2007, published 2011)
# Assays:
# [1] = molecular target: T1, alpha1 subunit of the GABA-A receptor together with a beta and a gamma subunit (Homo sapiens, UniProt P14867); assay: GABA-A receptor modulation, voltage-sensitive dye fluorescence assay (alpha1); format: cell-based; conditions: transfected eukaryotic cell line; sub-maximal concentration of GABA; fluorescent signal of voltage-sensitive dye
# T1 construct: expressed in transfected cells
# T1 sequence (P14867 28-456): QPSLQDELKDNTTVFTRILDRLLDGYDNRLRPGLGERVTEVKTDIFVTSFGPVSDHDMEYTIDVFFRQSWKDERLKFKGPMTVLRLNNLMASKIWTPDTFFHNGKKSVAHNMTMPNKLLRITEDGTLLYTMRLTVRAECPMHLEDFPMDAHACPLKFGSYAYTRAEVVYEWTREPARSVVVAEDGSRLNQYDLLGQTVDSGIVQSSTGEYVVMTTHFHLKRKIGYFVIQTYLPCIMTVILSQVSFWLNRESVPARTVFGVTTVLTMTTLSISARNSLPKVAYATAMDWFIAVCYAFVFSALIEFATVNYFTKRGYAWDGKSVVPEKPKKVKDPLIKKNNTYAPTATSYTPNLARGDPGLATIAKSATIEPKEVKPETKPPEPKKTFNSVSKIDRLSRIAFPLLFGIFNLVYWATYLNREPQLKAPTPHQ
# T1 sequence (P47870 25-512 partner limits assumed): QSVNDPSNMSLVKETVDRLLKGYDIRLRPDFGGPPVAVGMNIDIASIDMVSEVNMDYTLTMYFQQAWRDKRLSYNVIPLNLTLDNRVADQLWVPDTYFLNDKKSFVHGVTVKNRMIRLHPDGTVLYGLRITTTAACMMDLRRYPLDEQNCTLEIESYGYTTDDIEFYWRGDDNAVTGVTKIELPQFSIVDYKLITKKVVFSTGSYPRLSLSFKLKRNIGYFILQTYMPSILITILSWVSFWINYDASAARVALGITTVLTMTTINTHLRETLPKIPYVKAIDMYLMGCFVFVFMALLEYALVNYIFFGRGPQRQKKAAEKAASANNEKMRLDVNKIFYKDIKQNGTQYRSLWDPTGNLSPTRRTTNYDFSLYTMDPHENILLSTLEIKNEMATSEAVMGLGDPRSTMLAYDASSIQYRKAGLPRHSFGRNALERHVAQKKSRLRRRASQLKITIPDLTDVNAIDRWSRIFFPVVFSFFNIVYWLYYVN
# T1 sequence (P18507 40-467 partner limits assumed): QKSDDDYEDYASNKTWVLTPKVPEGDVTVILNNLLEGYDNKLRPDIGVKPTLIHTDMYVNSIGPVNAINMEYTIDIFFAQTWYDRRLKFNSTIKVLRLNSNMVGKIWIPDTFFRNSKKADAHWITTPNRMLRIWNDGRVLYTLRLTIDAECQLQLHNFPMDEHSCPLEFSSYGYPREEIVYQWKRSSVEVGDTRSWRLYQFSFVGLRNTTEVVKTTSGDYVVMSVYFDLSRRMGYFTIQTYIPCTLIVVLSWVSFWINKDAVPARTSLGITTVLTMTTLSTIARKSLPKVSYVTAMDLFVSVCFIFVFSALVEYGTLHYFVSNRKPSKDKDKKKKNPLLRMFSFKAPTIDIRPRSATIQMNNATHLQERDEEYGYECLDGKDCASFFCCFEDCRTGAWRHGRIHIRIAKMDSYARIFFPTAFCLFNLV
# [2] = molecular target: T2, alpha2 subunit of the GABA-A receptor together with a beta and a gamma subunit (Homo sapiens, UniProt P47869); assay: GABA-A receptor modulation, voltage-sensitive dye fluorescence assay (alpha2); format: cell-based; conditions: transfected eukaryotic cell line; sub-maximal concentration of GABA; fluorescent signal of voltage-sensitive dye
# T2 construct: expressed in transfected cells
# T2 sequence (P47869 29-451): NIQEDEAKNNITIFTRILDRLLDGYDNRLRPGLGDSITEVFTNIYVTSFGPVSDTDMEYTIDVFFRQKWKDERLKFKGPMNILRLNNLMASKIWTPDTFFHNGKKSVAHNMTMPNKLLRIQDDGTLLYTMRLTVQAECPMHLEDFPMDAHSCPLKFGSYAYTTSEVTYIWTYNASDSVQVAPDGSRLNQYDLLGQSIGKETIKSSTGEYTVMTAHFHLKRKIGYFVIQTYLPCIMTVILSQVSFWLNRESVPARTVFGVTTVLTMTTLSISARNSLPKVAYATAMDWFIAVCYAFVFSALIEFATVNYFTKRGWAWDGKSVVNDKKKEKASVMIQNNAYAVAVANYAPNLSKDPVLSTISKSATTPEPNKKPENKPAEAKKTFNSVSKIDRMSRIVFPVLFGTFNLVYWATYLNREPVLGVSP
# T2 sequence (P28472 26-473 partner): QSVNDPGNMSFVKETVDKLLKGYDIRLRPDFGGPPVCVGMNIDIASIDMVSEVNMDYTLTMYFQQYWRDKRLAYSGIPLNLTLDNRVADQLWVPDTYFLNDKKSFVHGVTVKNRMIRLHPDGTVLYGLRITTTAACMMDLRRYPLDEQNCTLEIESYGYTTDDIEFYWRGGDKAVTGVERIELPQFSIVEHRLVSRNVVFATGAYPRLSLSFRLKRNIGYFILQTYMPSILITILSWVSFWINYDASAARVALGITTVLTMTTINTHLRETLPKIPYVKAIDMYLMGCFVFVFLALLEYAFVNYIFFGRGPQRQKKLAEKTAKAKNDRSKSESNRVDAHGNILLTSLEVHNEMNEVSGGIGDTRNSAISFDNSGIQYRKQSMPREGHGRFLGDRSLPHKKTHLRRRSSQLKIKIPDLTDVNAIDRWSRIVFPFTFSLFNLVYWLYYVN
# T2 sequence (P18507 40-467 partner limits assumed): T1 sequence (P18507 40-467 partner limits assumed)
# Description: GABA-A receptor modulators show in functional assays a positive modulation of GABA-induced signals. This modulation can be determined in vitro, e.g., at recombinant GABA-A receptors expressed in a mammalian cell line, e.g. by measurement of GABA-A receptor induced changes of the trans-membrane voltage, when using a voltage-sensitive dye and a fluorescence detection system (Adkins, C. E., Pillai, G. V., Kerby, J., Bonnert, T. P., Haldon, C., Mckernan, R. M., Gonzalez, J. E., Oades, K., Whiting, P. J. & Simpson, P. B. [2001]. alpha4beta3delta GABA-A receptors characterized by fluorescence resonance energy transfer-derived measurements of membrane potential. J. Biol. Chem., 276, 38934-38939). In this assay, a modulator compound is pre-applied at different concentrations ranging from 0.1 nM to 10 μM to cells expressing GABA-A receptors and loaded with the voltage-sensitive dye, before, or at the same time as, a sub-maximal concentration of GABA (in the range of from 0.1 to 10 μM) is applied to the cells. The fluorescent signal is correlated with the degree of GABA-A receptor channel opening. This allows the quantification of effects induced by the modulator in a functional manner. By expression of different GABA-A receptor subunit combinations, the differential efficacy of a modulator at different GABA-A receptor variants can be tested. […]
compound,measurement,setting,value
"Clc1ccc(-n2nc3c4c(ncc3c2OCc2ccccc2Cl)CCCC4)cc1 [Example 1, 3-(2-Chloro-benzyloxy)-2-(4-chloro-phenyl)-6,7,8,9-tetrahydro-2H-pyrazolo[4,3-c]quinoline]","modulation of the GABA-induced response, alpha1 subunit",[1],37%
same,"modulation of the GABA-induced response, alpha2 subunit",[2],140%
